From paper PMC6413339 (EBioMedicine, 2019)
pIC50: −log10 of the molar value. “Also recorded” adds a separate entry of the source.

Legend:
[1] = target: T1, Src (Homo sapiens, UniProt P12931); test: Cell-free kinase assay (Reaction Biology, ADP-Glo); format: biochemical
T1 construct: purchased Invitrogen PR4336E
Method: (§1) Cell-free kinase activity assays were performed at Reaction Biology Corporation. Briefly, kinases were incubated with substrates, 100 μM ATP and a 3-fold serial dilution of compounds starting at 1 μM. DMSO was used as control. […] Experiments were performed in duplicates. The concentrations of kinases and substrates used in the assays are indicated on Table S1. Kinase activity was quantified using the ADP-Glo™ Kinase Assay System (Promega, Madison, WI) following the manufacturer's recommendations.

[2] = tested on: phospho-FLT3; test: Western blot, MOLM-14 (ITD, D835Y) cells; format: cell-based, human
[3] = tested on: MV4–11-luc cells; test: In vivo efficacy, orthotopic human AML model; settings: for Photon intensity on whole body (mean±SEM): 25 mg/kg IP, 3×/week
Method: The in vivo efficacy of compounds was assessed in an orthotopic human AML model in NSG (NOD scid gamma, NOD-scid IL2Rg^null) mice that were bred at University of Maryland Baltimore (mating pairs acquired from Jackson Laboratories; Maine). […]. Three days later, engraftment was assessed by imaging on a Xenogen IVIS-2 Imaging System (Alameda) after an intraperitoneal (IP) injection of 150 mg/kg luciferin. Mice were sorted into four or five groups (n = 5) so that mean intensity (i.e., disease burden) was equal. Dosing started on day of sorting. Compounds were dissolved in 85% PBS (pH 7.4) buffer containing 10% DMSO and 5% Cremophore. The vehicle (buffer without compounds) was used as control. Mice were injected 3 to 5 days per week via IP injection. Mice were weighed on day of dosing and imaged once per week. […]. All mice were housed in a 12-h light/dark cycle with access to food and water ad libitum. Studies were performed with Institutional Animal Care and Use Committee (UMB and Purdue University) approval.
[…]. Female mice were dosed daily for 5 days via intraperitoneal injection and then monitored for an additional week for weight loss, a sign of toxicity in mice. […] To evaluate the anti-leukemic efficacy in vivo, six-week-old female NSG or NRG mice were injected intravenously with FLT3-ITD expressing acute myeloid leukemia cells (MV4–11), expressing luciferase. […] Dosing (i.p) with the compounds was then started. The mice were dosed with 25 mg/kg of the compounds three times a week (MWF). […] […].

[4] = target: FLT3-ITD (Homo sapiens, UniProt P36888, ITD); test: Cell-free kinase assay, dose-response (Reaction Biology, ADP-Glo); format: biochemical
Chain of FLT3-ITD (P36888 564-993, change not shown): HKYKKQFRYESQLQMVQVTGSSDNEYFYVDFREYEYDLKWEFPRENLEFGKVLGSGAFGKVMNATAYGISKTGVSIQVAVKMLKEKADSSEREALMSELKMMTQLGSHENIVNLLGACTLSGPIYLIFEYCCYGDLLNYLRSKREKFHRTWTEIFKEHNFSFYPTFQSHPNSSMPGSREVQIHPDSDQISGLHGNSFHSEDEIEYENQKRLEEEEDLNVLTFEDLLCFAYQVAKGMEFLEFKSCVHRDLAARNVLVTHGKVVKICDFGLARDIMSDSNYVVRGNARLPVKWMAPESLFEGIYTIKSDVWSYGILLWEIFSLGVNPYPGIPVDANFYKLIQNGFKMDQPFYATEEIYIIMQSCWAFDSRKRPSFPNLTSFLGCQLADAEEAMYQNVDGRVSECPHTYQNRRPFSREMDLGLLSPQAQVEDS
Method: as §1

T1 sequence (P12931 whole entry): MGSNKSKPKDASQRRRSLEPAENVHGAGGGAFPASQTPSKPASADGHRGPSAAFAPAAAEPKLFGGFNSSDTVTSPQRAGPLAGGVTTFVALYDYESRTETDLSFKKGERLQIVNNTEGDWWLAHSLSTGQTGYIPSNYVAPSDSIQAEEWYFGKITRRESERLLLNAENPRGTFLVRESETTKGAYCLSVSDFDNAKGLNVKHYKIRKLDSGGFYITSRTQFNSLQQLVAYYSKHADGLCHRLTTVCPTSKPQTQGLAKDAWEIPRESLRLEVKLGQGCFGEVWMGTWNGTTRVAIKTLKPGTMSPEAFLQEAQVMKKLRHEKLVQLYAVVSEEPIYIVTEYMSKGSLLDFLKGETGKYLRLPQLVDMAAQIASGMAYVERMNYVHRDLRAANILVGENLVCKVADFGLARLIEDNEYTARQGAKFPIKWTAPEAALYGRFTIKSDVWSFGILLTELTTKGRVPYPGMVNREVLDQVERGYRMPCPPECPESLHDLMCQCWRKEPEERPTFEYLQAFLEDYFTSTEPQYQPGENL

SMILES: Cc1ncc(C(=O)Nc2ccc(CN3CCN(C)CC3)c(C(F)(F)F)c2)cc1C#Cc1c(N)ncc2ccc(F)cc12 [Compound 7]
- pIC50 ([1]; Src 0.6 nM, ATP 100 μM, read-out: IC50 against Src): 7.90
- inhibition at 0.5 µM ([1]; inhibitor 500 nM, 100 μM ATP, average of duplicate): 98%
- phosphorylation of FLT3 [2]: Inhibition
- adverse events / signs of toxicity on repeated dosing ([3]; 25 mg/kg IP 3×/week for several weeks, listed as HSN431): without any adverse events; also recorded: without any obvious signs of toxicity
- reduction in leukemia burden ([3]; 25 mg/kg i.p. three times a week (MWF), NSG or NRG mice): > 99%
- Photon intensity on whole body (mean±SEM) ([3]; Day 1, n = 5): 130000 ± 21400
- Photon intensity on whole body (mean±SEM) ([3]; Day 27, n = 5): 4570 ± 615
- Photon intensity on whole body (mean±SEM) ([3]; Day 41, n = 5): 19600 ± 3730
- Photon intensity on whole body (mean±SEM) ([3]; Day 73, n = 5): 4390 ± 140
- survival ([3]; after day 73, 25 mg/kg IP 3×/week, n = 5): all five mice were still alive
- mice still alive ([3]; day 40, 25 mg/kg three times per week, all control mice had died): 100%
- pIC50 [4]: 7.90
